{
  "source": "patent US10829506B2",
  "about": "“Amino- or ammonium-containing sulfonic acid, phosphonic acid and carboxylic acid derivatives and their medical use” (GRI Bio, Inc., priority 2011, dated 2020)",
  "system": "BALB/cJW mice",
  "assay": "Delayed-type hypersensitivity (DTH) reaction, mouse ear swelling",
  "type": "in vivo",
  "procedure": "The anti-inflammatory and anti-allergic effects of compound 1a was assessed in a mouse model of skin delayed-type hypersensitivity (DTH) reactions and compared to a vehicle control and to the reference drug dexamethasone. DTH reactions are antigen-specific cell-mediated immune responses, driven primarily by T helper type 1 (Th1) cells, similar to the tuberculin immunization response. The immune reaction induced by an ovalbumin challenge to animals previously sensitized with ovalbumin in Complete Freund's Adjuvant, is characterized by swelling (edema) at the site of challenge, e.g. the mouse ear. Dexamethasone, an anti-inflammatory steroid, reduces cell-mediated immune responses and was employed to validate the responsiveness of the assay to pharmacological treatment.\nFemale BALB/cJW mice were bred at the University of Lodz, Lodz, Poland and housed in groups of 8 in makrolon cages with a 12 h light-dark cycle. Mice were given free access to food (Agropol S. j., Motycz, Poland) and water.\nGroup size was n=8 mice unless otherwise stated. Test compound was freshly prepared before administration.\nSensitization: The protein antigen, ovalbumin, was reconstituted in PBS at 4 mg/ml. […] The emulsion was tested by putting a drop of emulsion onto PBS; if the emulsion remained as a light droplet on the PBS, the emulsion was deemed ready. […]\nChallenge: On the sixth day after sensitization, DTH was elicited by challenging animals subcutaneously (gauge 30 needle, B. Braun Melsungen, Melsungen, Germany) in the left ears with 10 μL of a 1% suspension of heat-aggregated ovalbumin (HOVA) (100 μg ovalbumin per mouse). […] Ear thickness was measured with a precise spring-loaded caliper (Art. No, 7309, Mltutoyo, Kawasaki, Japan) before challenge, and 24 h after challenge. […]\nTo account for individual variability, the increase in right ear thickness, before and 24 h after administration of PBS, was subtracted from the HOVA-induced increase in left ear thickness. The increase in ear thickness was calculated by the difference between ear thickness before and 24 h after antigen challenge. […]",
  "data": [
    {"smiles": "CCCCCCCCCCCCCC[N+](C)(C)CCCS(=O)(=O)[O-]", "note": "[Compound 1a, 3-(N,N-Dimethylmyristylammonio)-Propanesulfonate]", "values": [
      {"measurement": "Inhibition of DTH response relative to that of a high dose of dexamethasone", "setting": "1a oral vs dexamethasone 1 mg/kg", "value": 65, "unit": "%"},
      {"measurement": "Inhibition of mouse ear swelling (DTH response)", "setting": "oral, 1a 100 mg/kg (loading dose, then maintenance doses), dexamethasone 1.0 mg/kg once daily, 24 h after ovalbumin challenge", "value": 32, "unit": "%"}
    ]}
  ]
}
